Experimental data as given in ChEMBL document CHEMBL2331421, “Amino acid derived quinazolines as Rock/PKA inhibitors” (Bioorg Med Chem Lett, 2013).

Key:
[1] = biological target: Serine/threonine-protein kinase MRCK alpha (Homo sapiens, UniProt Q5VT25); assay: Inhibition of MRCKalpha (unknown origin)
[2] = biological target: Mitogen-activated protein kinase 14 (Homo sapiens, UniProt Q16539); assay: Inhibition of p38alpha (unknown origin)
[3] = biological target: Mitogen-activated protein kinase 9 (Homo sapiens, UniProt P45984); assay: Inhibition of JNK2 (unknown origin)
[4] = biological target: Mitogen-activated protein kinase 10 (Homo sapiens, UniProt P53779); assay: Inhibition of JNK3 (unknown origin)
[5] = biological target: Mitogen-activated protein kinase 8 (Homo sapiens, UniProt P45983); assay: Inhibition of JNK1 (unknown origin)
[6] = biological target: CYP3A4 (Homo sapiens, UniProt P08684); assay: Inhibition of CYP3A4 (unknown origin) at 10 uM relative to control; type: ADME
[7] = biological target: CYP2C9 (Homo sapiens, UniProt P11712); assay: Inhibition of CYP2C9 (unknown origin) at 10 uM relative to control; type: ADME
[8] = biological target: CYP2D6 (Homo sapiens, UniProt P10635); assay: Inhibition of CYP2D6 (unknown origin) at 10 uM relative to control; type: ADME
[9] = biological target: T1, CYP1A2 (Homo sapiens, UniProt P05177); assay: Inhibition of CYP1A2 (unknown origin) at 10 uM relative to control; type: ADME
T1 sequence (P05177 whole entry): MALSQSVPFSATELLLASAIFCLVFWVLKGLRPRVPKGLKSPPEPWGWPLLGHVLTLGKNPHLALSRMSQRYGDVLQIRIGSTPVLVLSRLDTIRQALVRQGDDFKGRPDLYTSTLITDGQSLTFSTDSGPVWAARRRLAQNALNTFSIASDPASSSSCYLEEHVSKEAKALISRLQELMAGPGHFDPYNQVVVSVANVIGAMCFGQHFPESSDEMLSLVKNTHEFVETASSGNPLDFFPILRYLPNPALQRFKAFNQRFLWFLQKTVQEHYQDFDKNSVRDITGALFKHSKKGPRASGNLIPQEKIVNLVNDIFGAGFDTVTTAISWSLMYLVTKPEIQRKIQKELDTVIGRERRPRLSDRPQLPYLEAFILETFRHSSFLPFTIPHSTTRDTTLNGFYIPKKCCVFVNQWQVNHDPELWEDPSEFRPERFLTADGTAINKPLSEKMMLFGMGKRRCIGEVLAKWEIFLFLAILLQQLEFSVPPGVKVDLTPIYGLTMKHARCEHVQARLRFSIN

[10] = Half life in human liver microsomes; type: ADME, Microsome
[11] = Inhibition of ROCK in rat A7r5 cells assessed as inhibition of myosin light chain bisphosphorylation by Western blot analysis; type: cell-based
[12] = Inhibition of PKA (unknown origin); parameters: species or system Homo sapiens
[13] = biological target: Rho-associated protein kinase 2 (Homo sapiens, UniProt O75116); assay: Inhibition of human recombinant 6-His-tagged ROCK2 expressed in baculovirus-infected Sf9 cells using LCB-AKRRRLSSLRA-NH2 as substrate after 25 mins by TR-FRET assay
[14] = biological target: Rho-associated protein kinase 1 (Homo sapiens, UniProt Q13464); assay: Inhibition of ROCK1 (unknown origin)
Chain of Rho-associated protein kinase 1 (Q13464 whole entry): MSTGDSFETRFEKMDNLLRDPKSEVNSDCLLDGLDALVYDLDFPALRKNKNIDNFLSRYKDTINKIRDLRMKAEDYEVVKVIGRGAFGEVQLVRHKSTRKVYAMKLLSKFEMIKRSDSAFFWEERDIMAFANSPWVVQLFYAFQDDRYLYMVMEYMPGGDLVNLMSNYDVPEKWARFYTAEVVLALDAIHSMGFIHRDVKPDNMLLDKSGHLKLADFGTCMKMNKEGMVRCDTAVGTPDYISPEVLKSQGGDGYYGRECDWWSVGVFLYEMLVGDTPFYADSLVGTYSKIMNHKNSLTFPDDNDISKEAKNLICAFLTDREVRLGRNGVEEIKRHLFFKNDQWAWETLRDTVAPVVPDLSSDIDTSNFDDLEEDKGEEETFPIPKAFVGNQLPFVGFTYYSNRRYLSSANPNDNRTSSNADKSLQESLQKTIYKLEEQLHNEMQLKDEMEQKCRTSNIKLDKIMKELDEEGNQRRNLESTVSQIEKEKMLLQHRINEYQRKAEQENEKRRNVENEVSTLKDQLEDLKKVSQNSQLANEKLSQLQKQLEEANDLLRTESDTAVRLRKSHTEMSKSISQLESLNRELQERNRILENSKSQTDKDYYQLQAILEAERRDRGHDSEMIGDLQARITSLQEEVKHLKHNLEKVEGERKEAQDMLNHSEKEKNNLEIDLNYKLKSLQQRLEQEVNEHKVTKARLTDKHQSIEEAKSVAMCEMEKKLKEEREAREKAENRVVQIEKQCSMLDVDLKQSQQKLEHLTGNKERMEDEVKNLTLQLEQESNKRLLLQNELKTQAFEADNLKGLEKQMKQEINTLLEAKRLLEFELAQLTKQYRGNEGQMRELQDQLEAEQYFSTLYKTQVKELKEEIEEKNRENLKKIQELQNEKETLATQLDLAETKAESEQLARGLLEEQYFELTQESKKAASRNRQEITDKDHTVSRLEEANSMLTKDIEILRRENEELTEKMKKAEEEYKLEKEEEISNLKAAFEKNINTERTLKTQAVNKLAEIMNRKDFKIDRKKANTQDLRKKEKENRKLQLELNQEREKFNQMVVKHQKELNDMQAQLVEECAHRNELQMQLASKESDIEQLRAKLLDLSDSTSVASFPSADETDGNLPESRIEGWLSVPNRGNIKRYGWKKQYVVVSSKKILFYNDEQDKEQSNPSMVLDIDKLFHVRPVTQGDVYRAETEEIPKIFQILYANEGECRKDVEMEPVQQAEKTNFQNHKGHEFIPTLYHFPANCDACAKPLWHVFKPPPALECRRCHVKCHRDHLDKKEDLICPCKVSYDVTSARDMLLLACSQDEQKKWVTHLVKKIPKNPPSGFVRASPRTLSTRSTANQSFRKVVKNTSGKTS

Chain of Mitogen-activated protein kinase 14 (Q16539 whole entry): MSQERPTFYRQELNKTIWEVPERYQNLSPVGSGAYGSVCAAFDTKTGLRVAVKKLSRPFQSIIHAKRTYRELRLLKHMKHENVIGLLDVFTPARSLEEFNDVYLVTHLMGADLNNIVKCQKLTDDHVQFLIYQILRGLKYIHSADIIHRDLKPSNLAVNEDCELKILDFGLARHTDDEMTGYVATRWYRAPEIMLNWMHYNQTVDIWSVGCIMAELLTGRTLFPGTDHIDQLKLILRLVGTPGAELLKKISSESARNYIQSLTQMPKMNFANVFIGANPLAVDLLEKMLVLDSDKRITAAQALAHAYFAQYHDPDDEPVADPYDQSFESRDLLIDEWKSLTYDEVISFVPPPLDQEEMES
Chain of CYP2C9 (P11712 whole entry): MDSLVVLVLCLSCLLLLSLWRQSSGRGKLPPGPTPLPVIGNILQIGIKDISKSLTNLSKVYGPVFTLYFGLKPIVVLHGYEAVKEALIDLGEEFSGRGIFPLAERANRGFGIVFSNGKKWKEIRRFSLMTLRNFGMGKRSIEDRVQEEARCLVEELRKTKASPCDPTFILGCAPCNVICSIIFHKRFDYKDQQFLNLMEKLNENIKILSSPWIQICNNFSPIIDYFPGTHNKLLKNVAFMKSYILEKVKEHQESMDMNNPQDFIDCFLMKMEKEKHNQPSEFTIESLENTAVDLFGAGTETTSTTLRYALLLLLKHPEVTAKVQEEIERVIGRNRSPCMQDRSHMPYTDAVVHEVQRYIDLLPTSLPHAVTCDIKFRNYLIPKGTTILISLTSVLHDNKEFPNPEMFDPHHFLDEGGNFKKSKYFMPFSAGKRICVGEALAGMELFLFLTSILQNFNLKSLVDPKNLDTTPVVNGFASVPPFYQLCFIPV
Chain of CYP3A4 (P08684 whole entry): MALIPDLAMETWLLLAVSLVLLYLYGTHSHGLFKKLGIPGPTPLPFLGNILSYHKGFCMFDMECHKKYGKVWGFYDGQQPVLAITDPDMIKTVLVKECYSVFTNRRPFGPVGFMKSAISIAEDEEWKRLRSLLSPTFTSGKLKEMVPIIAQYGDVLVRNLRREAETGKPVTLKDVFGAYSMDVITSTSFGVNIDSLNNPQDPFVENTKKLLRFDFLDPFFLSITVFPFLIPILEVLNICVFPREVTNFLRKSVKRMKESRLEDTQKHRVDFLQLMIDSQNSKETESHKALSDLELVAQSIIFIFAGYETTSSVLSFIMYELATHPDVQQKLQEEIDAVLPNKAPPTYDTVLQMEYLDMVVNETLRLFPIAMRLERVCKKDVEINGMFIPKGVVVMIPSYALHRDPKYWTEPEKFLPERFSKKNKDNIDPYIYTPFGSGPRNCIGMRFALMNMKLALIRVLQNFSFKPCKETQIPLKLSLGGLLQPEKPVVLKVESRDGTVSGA
Chain of Rho-associated protein kinase 2 (O75116 whole entry): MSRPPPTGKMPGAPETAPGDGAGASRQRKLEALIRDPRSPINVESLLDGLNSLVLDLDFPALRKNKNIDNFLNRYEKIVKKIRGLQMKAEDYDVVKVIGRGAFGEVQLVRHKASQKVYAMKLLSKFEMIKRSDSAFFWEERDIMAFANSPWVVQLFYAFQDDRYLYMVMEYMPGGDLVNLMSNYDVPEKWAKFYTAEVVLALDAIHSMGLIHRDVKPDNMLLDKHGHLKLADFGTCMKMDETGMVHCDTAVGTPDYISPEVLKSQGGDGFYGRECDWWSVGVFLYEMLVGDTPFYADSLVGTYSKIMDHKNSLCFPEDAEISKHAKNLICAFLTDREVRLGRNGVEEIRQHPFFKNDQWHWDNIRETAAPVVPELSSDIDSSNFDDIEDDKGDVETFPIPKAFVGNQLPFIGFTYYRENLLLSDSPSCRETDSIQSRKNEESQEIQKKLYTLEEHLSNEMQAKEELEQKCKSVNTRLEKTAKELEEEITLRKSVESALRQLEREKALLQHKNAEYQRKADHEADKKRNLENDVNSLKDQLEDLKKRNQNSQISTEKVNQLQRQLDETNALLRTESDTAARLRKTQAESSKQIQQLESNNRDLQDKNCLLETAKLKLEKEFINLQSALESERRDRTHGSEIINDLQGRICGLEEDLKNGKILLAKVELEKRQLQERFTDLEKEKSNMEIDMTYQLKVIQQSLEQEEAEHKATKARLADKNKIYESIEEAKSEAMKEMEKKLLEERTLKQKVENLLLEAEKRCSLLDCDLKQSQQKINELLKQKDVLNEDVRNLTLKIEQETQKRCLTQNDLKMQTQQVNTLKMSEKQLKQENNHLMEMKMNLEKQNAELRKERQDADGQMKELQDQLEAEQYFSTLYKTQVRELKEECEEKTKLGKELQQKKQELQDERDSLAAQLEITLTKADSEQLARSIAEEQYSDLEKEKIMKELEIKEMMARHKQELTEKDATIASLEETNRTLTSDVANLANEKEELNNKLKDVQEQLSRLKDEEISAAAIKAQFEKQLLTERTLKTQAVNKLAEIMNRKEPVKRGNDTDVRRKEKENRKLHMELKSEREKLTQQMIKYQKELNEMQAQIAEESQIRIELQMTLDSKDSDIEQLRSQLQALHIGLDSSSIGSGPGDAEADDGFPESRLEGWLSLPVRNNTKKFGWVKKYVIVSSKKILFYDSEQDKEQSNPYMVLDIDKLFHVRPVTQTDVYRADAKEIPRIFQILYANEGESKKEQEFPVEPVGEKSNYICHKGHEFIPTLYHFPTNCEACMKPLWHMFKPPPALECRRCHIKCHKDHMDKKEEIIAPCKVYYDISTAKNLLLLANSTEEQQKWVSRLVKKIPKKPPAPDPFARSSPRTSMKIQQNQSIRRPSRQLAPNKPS
Chain of CYP2D6 (P10635 whole entry): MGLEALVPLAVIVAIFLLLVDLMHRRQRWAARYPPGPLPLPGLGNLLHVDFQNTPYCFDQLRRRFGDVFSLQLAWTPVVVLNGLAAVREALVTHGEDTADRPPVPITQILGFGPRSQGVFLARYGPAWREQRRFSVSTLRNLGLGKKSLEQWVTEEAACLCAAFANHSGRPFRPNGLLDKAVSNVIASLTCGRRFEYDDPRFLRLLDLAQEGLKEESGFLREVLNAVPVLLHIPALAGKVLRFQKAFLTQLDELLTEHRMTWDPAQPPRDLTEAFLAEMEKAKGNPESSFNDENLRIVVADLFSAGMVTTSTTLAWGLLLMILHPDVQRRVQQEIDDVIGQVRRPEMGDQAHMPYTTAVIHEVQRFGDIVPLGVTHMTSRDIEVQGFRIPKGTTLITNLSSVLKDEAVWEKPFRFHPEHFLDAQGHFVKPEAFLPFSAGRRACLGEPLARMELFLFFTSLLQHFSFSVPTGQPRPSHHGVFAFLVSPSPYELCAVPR
Chain of Mitogen-activated protein kinase 10 (P53779 whole entry): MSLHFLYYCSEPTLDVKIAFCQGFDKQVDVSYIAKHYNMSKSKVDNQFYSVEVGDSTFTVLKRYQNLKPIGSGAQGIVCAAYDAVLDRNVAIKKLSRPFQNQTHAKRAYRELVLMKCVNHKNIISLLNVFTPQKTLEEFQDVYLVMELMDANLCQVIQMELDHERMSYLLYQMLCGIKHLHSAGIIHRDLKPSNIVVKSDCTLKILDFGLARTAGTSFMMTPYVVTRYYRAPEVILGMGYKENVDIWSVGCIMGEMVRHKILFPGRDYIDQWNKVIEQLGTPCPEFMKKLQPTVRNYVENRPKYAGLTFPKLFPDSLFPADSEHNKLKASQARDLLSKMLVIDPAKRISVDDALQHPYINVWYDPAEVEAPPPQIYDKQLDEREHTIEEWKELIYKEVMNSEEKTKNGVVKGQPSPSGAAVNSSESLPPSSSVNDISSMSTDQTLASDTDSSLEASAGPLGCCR

Row | IC50 [1] [nM] | IC50 [2] [nM] | IC50 [3] [nM] | IC50 [4] [nM] | IC50 [5] [nM] | inhibition at 10 µM [6] [%] | inhibition at 10 µM [7] [%] | inhibition at 10 µM [8] [%] | inhibition at 10 µM [9] [%] | half-life [10] [min] | IC50 [11] [nM] | IC50 [12] [nM] | IC50 [13] [nM] | IC50 [14] [nM] | SMILES
1 | > 1000 | > 1000 | > 1000 | > 1000 | > 1000 | 77 | 47 | 88 | 49 | 86 | 800 | 279 | 2.5 | – | CN(C)c1nc([C@@H]2CNC[C@H]2c2ccccc2)nc2ccc(-c3cn[nH]c3)cc12
2 | > 1000 | > 1000 | > 1000 | > 1000 | > 1000 | 23 | 83 | 55 | 10 | 15 | 500 | 7 | < 1 | < 1 | CN(C)CC(=O)NC(c1ccc(Cl)cc1)c1nc2ccc(-c3cn[nH]c3)cc2c(=O)[nH]1 (centres undefined)
3 | > 1000 | > 1000 | > 1000 | > 1000 | > 1000 | 63 | 94 | 96 | 90 | 420 | – | 96 | 18 | 22 | NCc1ccc(C(=O)NC(c2ccc(Cl)cc2)c2nc3ccc(-c4cn[nH]c4)cc3c(=O)[nH]2)cc1 (centres undefined)
4 | > 1000 | > 1000 | > 1000 | > 1000 | > 1000 | -3 | 55 | 66 | 0 | 21 | 30 | 26 | 5 | 13 | COc1ccc([C@@H]2CN(C)C[C@H]2c2nc3ccc(-c4cn[nH]c4)cc3c(=O)[nH]2)cc1
5 | > 1000 | > 1000 | > 1000 | > 1000 | > 1000 | 75 | 84 | 89 | 18 | 46 | 91 | – | 13 | 15 | NC(c1cccc(Cl)c1)c1nc2ccc(-c3cn[nH]c3)cc2c(=O)[nH]1 (centres undefined)
6 | > 1000 | > 1000 | > 1000 | > 1000 | > 1000 | 80 | 79 | 63 | 54 | 51 | – | 11 | 8 | 8 | COc1cc(-c2cn[nH]c2)cc2c(=O)[nH]c(C(N)c3cccc(Cl)c3)nc12 (centres undefined)
7 | > 1000 | > 1000 | > 1000 | > 1000 | > 1000 | 30 | 34 | 75 | 65 | 75 | 23 | 2 | < 1 | 1 | O=c1[nH]c([C@@H]2CNC[C@H]2c2ccc(Cl)cc2)nc2ccc(-c3cn[nH]c3)cc12
8 | > 1000 | > 1000 | > 1000 | > 1000 | > 1000 | 31 | 38 | 89 | 12 | 42 | 300 | 16 | 9 | 17 | N[C@@H](Cc1ccc(F)cc1)c1nc2ccc(-c3cn[nH]c3)cc2c(=O)[nH]1
9 | > 1000 | > 1000 | > 1000 | > 1000 | > 1000 | 37 | 36 | 89 | 19 | 65 | – | 17 | 8 | 8 | N[C@H](Cc1ccc(F)cc1)c1nc2ccc(-c3cn[nH]c3)cc2c(=O)[nH]1
10 | > 1000 | > 1000 | > 1000 | > 1000 | > 1000 | 63 | 10 | 57 | 34 | 36 | 470 | 24 | 7 | 7 | COc1cc(-c2cn[nH]c2)cc2c(=O)[nH]c([C@H](N)Cc3cccc(F)c3)nc12
11 | > 1000 | > 1000 | > 1000 | > 1000 | > 1000 | 53 | 52 | 76 | 10 | 21 | – | 8 | 4 | 16 | COc1ccc(C[C@H](N)c2nc3ccc(-c4cn[nH]c4)cc3c(=O)[nH]2)cc1
12 | – | – | – | – | – | – | – | – | – | – | – | 49 | 52 | – | N[C@@H](Cc1ccccc1)c1nc2ccc(-c3ccncc3)cc2c(=O)[nH]1
13 | – | – | – | – | – | – | – | – | – | – | – | 7 | 12 | – | N[C@@H](Cc1ccccc1)c1nc2ccc(-c3cn[nH]c3)cc2c(=O)[nH]1
14 | > 1000 | > 1000 | > 1000 | > 1000 | > 1000 | 40 | 37 | 36 | -1 | 64 | – | 20 | 43 | 48 | COc1ccc(C(N)c2nc3ccc(-c4cn[nH]c4)cc3c(=O)[nH]2)cc1 (centres undefined)
15 | – | – | – | – | – | – | – | – | – | – | – | 29 | 23 | – | O=c1[nH]c([C@@H]2CNC[C@H]2c2ccccc2)nc2ccc(-c3ccncc3)cc12
16 | > 1000 | > 1000 | > 1000 | > 1000 | > 1000 | 19 | 5 | 72 | 19 | 35 | 312 | 4 | 1 | 2 | O=c1[nH]c([C@@H]2CNC[C@H]2c2ccccc2)nc2ccc(-c3cn[nH]c3)cc12
17 | > 1000 | > 1000 | > 1000 | > 1000 | > 1000 | 42 | 54 | 78 | 51 | 47 | 300 | 7 | 6 | – | N[C@@H](Cc1ccc(Cl)cc1)c1nc2ccc(-c3cn[nH]c3)cc2c(=O)[nH]1
